The record followed here is patent US10538516B2, “Oxadiazole derivative and pharmaceutical containing same” (National Center for Geriatrics and Gerontology, priority 2015, dated 2020).

SMILES strings stand for the structures. Like-named read-outs stand apart in the source and are kept apart here.

This assay has as its target T1, GAβ-dependent amyloid fibril formation (Human Aβ1-40 + GM1-containing liposome) (Homo sapiens, UniProt P05067).
T1 construct: Human Aβ1-40 (cat. #4307-v, prepared by Peptide Institute); purchased Peptide Institute 4307-v
The assay is described as follows: Thioflavin T (ThT) assay of GAβ-dependent amyloid fibril formation (Aβ1-40 with GM1-containing liposome). It counts as biochemical. On the procedure: <3. Evaluation of the Compounds Based on the Inhibitory Activity Against Amyloid Fibril Formation in Thioflabin T (ThT) Assay>
Inhibitory activity against GAβ-dependent amyloid fibril formation of the above compounds 1 to 133 and 142 to 267 were evaluated in ThT assay.
(1) Preparation of Aβ Solution
Human Aβ1-40 (cat. #4307-v, prepared by Peptide Institute) was dissolved in a 0.02% ammonia solution (400 μM), and the mixture was treated in an ultracentrifuge (S110AT rotor, Hitachi) at 100,000 rpm for 3 hours. Approximately two-thirds of the upper layer of the supernatant was recovered and protein concentration was measured. The Aβ solution was aliquoted and stored at −80° C. until use, was melted immediately before use, and was diluted to 75 μM using phosphate buffer (PBS: cat. #10010, manufactured by Life Technologies).
(2) Preparation of GM1-Containing Liposome
Using a mixed solution of chloroform/methanol (1:1) as a solvent, a mixed solution of 100 mM each of cholesterol and sphingomyelin (both manufactured by Sigma-Aldrich) was prepared. To this mixed solution, GM 1 (cat. #1061, manufactured by Matreya Co.) was dissolved to make a solution of 50 mM concentration. This lipid mixed solution was aliquoted into glass test tubes and stored at −20° C. until use, was melted before use, was mixed with chloroform/methanol mixture (1:1) and mixed, and then the solvent was removed by applying nitrogen gas to the suspension. The dried lipid mixture was resuspended in PBS to be a GM1 concentration of 2.5 mM, and frozen and thawed 5 times with liquid nitrogen. The lipid suspension was centrifuged at 15,000 rpm for 10 minutes and the precipitate was resuspended in PBS to be a GM1 concentration of 2.5 mM. Using an ultrasonic crusher (XL-2000, MISONIX Co., Ltd.) equipped with a microchip, ultrasonic treatment was repeated on ice for 10 seconds until the suspension became transparent, and GM1-containing liposome was prepared. Immediately prior to use, PBS was added and diluted to a GM 1 concentration of 75 μM.
(3) Preparation of Compound Solution
Compounds 1 to 133 and 142 to 267 were prepared as 10 mM and 2 mM solution in DMSO, respectively. And each solution was diluted to 75 μM or 15 μM with PBS immediately prior to use.
(4) GAβ-Dependent Amyloid Fibril Formation
To a 96-well microplate, 5 μl each of the 75 μM Aβ solution prepared above (1), the compound solution prepared in (3) or 0.75% DMSO was mixed and incubated at room temperature for 10 minutes. Then, 5 μl each of 750 μM GM1-containing liposome prepared in (2) was added to each well and incubated at 37° C. for 18 hours.
ThT (manufactured by Sigma-Aldrich) was adjusted to 5 μM using 50 mM glycine-NaOH buffer (pH 8.5). Immediately before measurement, 10 μl from each well of (4) was transferred to a 96-well black plate. 50 μl of 5 μM ThT solution was added from each injector to each well using a multi-plate reader (ARVO-HTS, manufactured by Perkin Elmer), and then the optimal fluorescence of ThT bound to amyloid fiber (excitation wavelength 430 nm, fluorescence wavelength 490 nm) was measured.
The fluorescence intensity of ThT indicates the degree of amyloid fibrils formation. By calculating the ratio of the ThT fluorescence intensity between addition of the compound and without addition of the compound, the inhibition rate against amyloid fibril formation by the compound was calculated.

Where [1] appears, read: read-out: ThT Inhibitory activity (% inhibition).
[2] abbreviates: @25 μM, read-out: ThT Inhibitory activity (% inhibition).
The mark [3] stands for this setting: inhibition rate against amyloid fibril formation, final concentration of the compound 25 μM, read-out: Inhibitory activity ABC evaluation.

T1 sequence (P05067 672-711 limits assumed): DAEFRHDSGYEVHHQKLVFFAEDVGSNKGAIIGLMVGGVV

For the compound `O=C1CC(c2nc(-c3ccc4c(c3)OC(F)(F)O4)no2)CN1c1ccc(Cl)cc1` (stereo not shown) [Compound 32, 1-(4-chlorophenyl)-4-{3-(2,2-difluoro-benzo[d][1,3]dioxol-5-yl)-1,2,4-oxadiazol-5-yl}pyrrolidin-2-one], the inhibition at 5 µM under setting [1] amounted to 43%. Moreover, the inhibition at 25 µM reads like this: under setting [2], 86%; under setting [3], > 80%.

As to `O=C1CC(c2nc(-c3cccc(OC(F)(F)F)c3)no2)CN1c1ccc(Cl)cc1` (stereo not shown) [Compound 33], the inhibition at 25 µM under setting [3] lay in the range of 40 to 80%. As to `O=C(c1ccc(Cl)cc1)N1C[C@H](O)C[C@H]1c1nc(-c2ccc(OC(F)(F)F)cc2)no1` [Compound 34, (3R,5S)-1-(4-chlorobenzoyl)-5-{3-[4-(trifluoromethoxy)phenyl]-1,2,4-oxadiazol-5-yl}pyrrolidin-3-ol], the inhibition at 25 µM under setting [3] was 40 to 80%.

Regarding `O=C(NC1(c2nc(-c3ccc(OC(F)(F)F)cc3)no2)CCCC1)c1cccc(Cl)c1` [Compound 35, 3-chloro-N-(1-[3-{4-(trifluoromethoxy)phenyl}-1,2,4-oxadiazol-5-yl]cyclopentyl) benzamide], under setting [3], the inhibition at 25 µM was < 40%.

Consider `O=C(Nc1ccc(Cl)cc1)NC1(c2nc(-c3ccc(OC(F)(F)F)cc3)no2)CCCC1` [Compound 36, 1-(4-chlorophenyl)-3-(1-[3-{4-(trifluoromethoxy)phenyl}-1,2,4-oxadiazol-5-yl]cyclopentyl)urea], for which the inhibition at 25 µM under setting [3] was < 40%. The same measure, in the same setting: the value for `NC(Cc1c[nH]cn1)c1nc(-c2ccc(OC(F)(F)F)cc2)no1` (stereo not shown) [Compound 37, 2-(1H-imidazol-4-yl)-1-[3-{4-(trifluoromethoxy)phenyl}-1,2,4-oxadiazol-5-yl]ethan-1-amine] was < 40%; that for `NC(Cc1ccc(O)cc1)c1nc(-c2ccc(OC(F)(F)F)cc2)no1` (stereo not shown) [Compound 38, 4-(2-amino-2-[3-{4-(trifluoromethoxy)phenyl}-1,2,4-oxadiazol-5-yl]ethyl)phenol] was 40 to 80%.

Regarding `O=C(N[C@@H](CO)c1nc(-c2ccc(OC(F)(F)F)cc2)no1)c1ccc(Cl)cc1` [Compound 39, (S)-4-chloro-N-(2-hydroxy-1-{3-[4-(trifluoromethoxy)phenyl]-1,2,4-oxadiazol-5-yl}ethyl)benzamide], the inhibition at 25 µM under setting [2] came to 98%; the inhibition at 25 µM (final concentration of the compound 25 μM, ratio of ThT fluorescence intensity with/without compound, 37° C. for 18 hours, read-out: inhibition rate against amyloid fibril formation (inhibitory activity on a scale of A to C)) is > 80%; the inhibition at 25 µM under setting [3] was > 80%.

Regarding `NC(Cc1c[nH]c2ccccc12)c1nc(-c2ccc3c(c2)OC(F)(F)O3)no1` (stereo not shown) [Compound 40, 1-{3-(2,2-difluorobenzo[d] [1,3]dioxol-5-yl)-1,2,4-oxadiazol-5-yl}-2-(1H-indol-3-yl)ethan-1-amine], under setting [1], the inhibition at 5 µM was found to be 38%. Further, the inhibition at 25 µM by setting is: under setting [2], 80%; under setting [3], > 80%. `O=C1CC(c2nc(-c3ccc(O)cc3)no2)CN1c1ccc(Cl)cc1` (stereo not shown) [Compound 41, 1-(4-chlorophenyl)-4-{3-(4-hydroxyphenyl)-1,2,4-oxadiazol-5-yl}pyrrolidin-2-one]: under setting [3], the inhibition at 25 µM was in the range of 40 to 80%. `COc1ccc(-c2noc(C3CC(=O)N(c4ccc(Cl)cc4)C3)n2)cc1F` (stereo not shown) [Compound 42]: the inhibition at 25 µM under setting [3] fell in the range of 40 to 80%. The same measure, in the same setting: the same measure for `O=C1CC(c2nc(-c3ccccc3)no2)CN1c1ccc(Cl)cc1` (stereo not shown) [Compound 43, 1-(4-chlorophenyl)-4-(3-phenyl-1,2,4-oxadiazol-5-yl) pyrrolidin-2-one]: 40 to 80%. On the same count and under the same terms, the value for `O=C1CC(c2nc(-c3ccncc3)no2)CN1c1ccc(Cl)cc1` (stereo not shown) [Compound 44, 1-(4-chlorophenyl)-4-{3-(pyridin-4-yl)-1,2,4-oxadiazol-5-yl} pyrrolidin-2-one] was < 40%; that for `O=C(NC(CO)c1nc(-c2ccc(OC(F)(F)F)cc2)no1)c1c[nH]c2ccccc12` (stereo not shown) [Compound 46, N-(2-hydroxy-1-[3-{4-(trifluoro-methoxy)phenyl}-1,2,4-oxadiazol-5-yl]ethyl)-1H-indole-3-carboxamide] was 40 to 80%.

For the compound `O=C(c1c[nH]c2ccccc12)N1C[C@H](O)C[C@H]1c1nc(-c2ccc(OC(F)(F)F)cc2)no1` [Compound 47, ((2S,4R)-4-hydroxy-2-[3-{4-(trifluoro-methoxy)phenyl}-1,2,4-oxadiazol-5-yl]pyrrolidin-1-yl)(1H-indol-3-yl)methanone], the inhibition at 25 µM under setting [3] was < 40%.

Turning to `O=C1CC(c2nc(-c3ccc(OC(F)(F)F)cc3)no2)CN1c1ccc(Cl)nc1` (stereo not shown) [Compound 48, 1-(6-chloropyridin-3-yl)-4-[3-{4-(trifluoro-methoxy)phenyl}-1,2,4-oxadiazol-5-yl] pyrrolidin-2-one], under setting [3], the inhibition at 25 µM fell in the range of 40 to 80%. Same read-out and setting: the value for `O=C1CC(c2nc(-c3ccc(OC(F)(F)F)cc3)no2)CN1c1ccc(Cl)cn1` (stereo not shown) [Compound 49, 1-(5-chloropyridin-2-yl)-4-[3-{4-(trifluoro-methoxy)phenyl}-1,2,4-oxadiazol-5-yl] pyrrolidin-2-one] was 40 to 80%.

Regarding `COc1ccc(CN2CC(c3nc(-c4ccc(OC(F)(F)F)cc4)no3)CC2=O)cc1` (stereo not shown) [Compound 50, 1-(4-methoxybenzyl)-4-[3-{4-(trifluoro-methoxy)phenyl}-1,2,4-oxadiazol-5-yl] pyrrolidin-2-one], the inhibition at 25 µM under setting [3] lay within 40 to 80%. The same measure, in the same setting: the value for `O=C1CC(c2nc(-c3ccc(OC(F)(F)F)cc3)no2)CN1c1cncc(Cl)c1` (stereo not shown) [Compound 51, 1-(5-chloropyridin-3-yl)-4-[3-{4-(trifluoro-methoxy)phenyl}-1,2,4-oxadiazol-5-yl]pyrrolidin-2-one] was < 40%. On the same count and under the same terms, the same measure for `O=C1CC(c2nc(-c3ccc(OC(F)F)cc3)no2)CN1c1ccc(Cl)cc1` (stereo not shown) [Compound 52, 1-(4-chlorophenyl)-4-[3-{4-(difluoro-methoxy)phenyl}-1,2,4-oxadiazol-5-yl]pyrrolidin-2-one]: 40 to 80%; for `O=C1CC(c2nc(-c3ccc(OCF)cc3)no2)CN1c1ccc(Cl)cc1` (stereo not shown) [Compound 53, 1-(4-chlorophenyl)-4-[3-{4-(fluoromethoxy)phenyl}-1,2,4-oxadiazol-5-yl]pyrrolidin-2-one]: 40 to 80%; for `COc1ccc(-c2noc(C3CC(=O)N(c4ccc(Cl)cc4)C3)n2)cn1` (stereo not shown) [Compound 54, 1-(4-chlorophenyl)-4-{3-(6-methoxy-pyridin-3-yl)-1,2,4-oxadiazol-5-yl}pyrrolidin-2-one]: 40 to 80%.

Turning to `O=C(c1ccc(Cl)cc1)N1CCC[C@H]1c1nc(-c2ccc(OC(F)(F)F)cc2)no1` [Compound 55, (S)-(4-chlorophenyl) (2-[3-{4-(trifluoro-methoxy)phenyl)-1,2,4-oxadiazol-5-yl}pyrrolidin-1-yl)methanone], the inhibition at 25 µM under setting [3] was 40 to 80%. On the same count and under the same terms, the same measure for `O=C(c1ccc(Cl)cc1)N1C[C@@H](O)C[C@H]1c1nc(-c2ccc(OC(F)(F)F)cc2)no1` [Compound 56, (4-chlorophenyl) ((2S,4S)-4-hydroxy-2-[3-{4-(trifluoro-methoxy)phenyl}-1,2,4-oxadiazol-5-yl]pyrrolidin-1-yl)methanone]: < 40%; for `O=C1C[C@@H](c2nc(-c3ccc(OC(F)(F)F)cc3)no2)N(C(=O)c2ccc(Cl)cc2)C1` [Compound 57, (S)-1-(4-chlorobenzoyl)-5-{3-[4-(trifluoromethoxy)phenyl]-1,2,4-oxadiazol-5-yl}pyrrolidin-3-one]: < 40%.
